The target of experiment [1] is T1, Human PDGFRα, cytoplasmic domain (GST-PDGFRα) (Homo sapiens, UniProt P16234).
T1 construct: made in house
The experiment can be described thus: Human PDGFRα biochemical inhibition assay (off-chip Mobility Shift Assay).

For experiment [2], the target named is T2, Human PDGFRβ, cytoplasmic domain (GST-PDGFRβ) (Homo sapiens, UniProt P09619).
T2 construct: made in house
In words: Human PDGFRβ biochemical inhibition assay (off-chip Mobility Shift Assay). In outline: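 GST-tagged cytoplasmic domain (aa 557-1106) from baculovirus was incubated 1 h at room temperature with compound, CSKtide, ATP at Km and Mg²⁺ in HEPES buffer, pH 7.5. Phosphorylated and unphosphorylated peptide were separated by off-chip mobility shift, and the product ratio P/(P+S) gave percent inhibition.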

T1 sequence (P16234 550-1089 T674I): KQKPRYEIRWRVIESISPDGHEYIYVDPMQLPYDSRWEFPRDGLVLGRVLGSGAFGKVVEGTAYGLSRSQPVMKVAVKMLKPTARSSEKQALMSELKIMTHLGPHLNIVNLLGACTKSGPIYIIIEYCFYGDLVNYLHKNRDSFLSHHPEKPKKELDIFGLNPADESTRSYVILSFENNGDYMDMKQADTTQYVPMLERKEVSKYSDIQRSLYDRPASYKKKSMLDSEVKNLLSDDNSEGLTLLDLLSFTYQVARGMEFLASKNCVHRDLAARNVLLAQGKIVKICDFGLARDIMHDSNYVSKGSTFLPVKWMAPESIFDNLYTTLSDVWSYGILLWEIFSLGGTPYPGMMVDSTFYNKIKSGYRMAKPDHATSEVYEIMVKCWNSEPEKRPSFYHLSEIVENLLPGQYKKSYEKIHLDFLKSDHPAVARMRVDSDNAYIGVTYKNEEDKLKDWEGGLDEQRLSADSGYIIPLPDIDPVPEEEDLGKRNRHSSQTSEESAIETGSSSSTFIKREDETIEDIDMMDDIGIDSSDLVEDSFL
T2 sequence (P09619 with tags, fused parts or gaps): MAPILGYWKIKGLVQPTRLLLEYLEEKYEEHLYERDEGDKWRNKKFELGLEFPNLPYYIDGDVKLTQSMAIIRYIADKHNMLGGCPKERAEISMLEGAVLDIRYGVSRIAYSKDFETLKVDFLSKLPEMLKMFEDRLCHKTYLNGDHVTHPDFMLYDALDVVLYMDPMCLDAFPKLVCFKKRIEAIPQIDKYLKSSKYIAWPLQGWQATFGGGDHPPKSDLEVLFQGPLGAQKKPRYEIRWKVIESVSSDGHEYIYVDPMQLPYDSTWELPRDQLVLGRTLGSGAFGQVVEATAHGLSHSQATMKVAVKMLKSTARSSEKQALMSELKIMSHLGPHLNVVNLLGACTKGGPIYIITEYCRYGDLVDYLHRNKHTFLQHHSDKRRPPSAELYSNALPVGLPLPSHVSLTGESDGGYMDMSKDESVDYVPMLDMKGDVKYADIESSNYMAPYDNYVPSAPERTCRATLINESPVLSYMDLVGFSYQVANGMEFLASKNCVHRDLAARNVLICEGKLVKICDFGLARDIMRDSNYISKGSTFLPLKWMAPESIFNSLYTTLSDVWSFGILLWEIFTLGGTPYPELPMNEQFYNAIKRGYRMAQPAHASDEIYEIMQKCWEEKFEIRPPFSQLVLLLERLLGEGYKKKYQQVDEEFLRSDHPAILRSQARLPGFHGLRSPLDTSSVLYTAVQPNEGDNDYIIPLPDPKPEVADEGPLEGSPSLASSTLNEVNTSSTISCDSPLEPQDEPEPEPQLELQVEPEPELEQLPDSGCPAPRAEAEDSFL

As for `Cc1cc(C(=O)Nc2cccc([C@H](C)Nc3cnc4cnn(C)c4n3)c2)cnc1Cl` [Compound 200, (S)-6-chloro-5-methyl-N-(3-(1-((1-methyl-1H-pyrazolo[3,4-b]pyrazin-6-yl)amino)ethyl)phenyl)nicotinamide], the IC50 in experiment [1] and in experiment [2] was under 300 nM in each case.
`C[C@H](Nc1cnc2cnn(C)c2n1)c1cc(NC(=O)c2ccc(C3CC3)nc2)ccc1F` [Compound 201, (S)-6-cyclopropyl-N-(4-fluoro-3-(1-((1-methyl-1H-pyrazolo[3,4-b]pyrazin-6-yl)amino)ethyl)phenyl) nicotinamide]: the IC50 in experiment [1] and in experiment [2] was under 300 nM throughout.
Consider `C[C@H](Nc1cnc2cnn(C)c2n1)c1cc(NC(=O)c2ccc(OC(F)F)nc2)ccc1F` [Compound 202, (S)-6-(difluoromethoxy)-N-(4-fluoro-3-(1-((1-methyl-1H-pyrazolo[3,4-b]pyrazin-6-yl)amino)ethyl)phenyl) nicotinamide], for which the half-inhibitory concentration (IC50) in experiment [1] and in experiment [2] was under 300 nM each time.
In the case of `COc1ccc(C(=O)Nc2cccc([C@H](C)Nc3cnc4cnn(C)c4n3)c2)cc1OC` [Compound 203, (S)-3,4-dimethoxy-N-(3-(1-((1-methyl-1H-pyrazolo[3,4-b]pyrazin-6-yl)amino)ethyl)phenyl)benzamide], the IC50 in experiment [1] and in experiment [2] was under 300 nM throughout.
Take `CC(C)c1ccc(C(=O)Nc2cccc([C@H](C)Nc3cnc4cnn(C)c4n3)c2)cn1` [Compound 204, (S)-6-isopropyl-N-(3-(1-((1-methyl-1H-pyrazolo[3,4-b]pyrazin-6-yl)amino)ethyl)phenyl)nicotinamide]: the IC50 in experiment [1] and in experiment [2] was under 300 nM in each case.
Regarding `COc1cc(C(=O)Nc2cccc([C@H](C)Nc3cnc4cnn(C)c4n3)c2)cnc1OC` [Compound 205, (S)-5,6-dimethoxy-N-(3-(1-((1-methyl-1H-pyrazolo[3,4-b]pyrazin-6-yl)amino)ethyl)phenyl)nicotinamide], the IC50 in experiment [1] and in experiment [2] was under 300 nM in each case.
`Cc1cc(C(=O)Nc2cccc([C@H](C)Nc3cnc4cnn(C)c4n3)c2)cnc1C` [Compound 206, (S)-5,6-dimethyl-N-(3-(1-((1-methyl-1H-pyrazolo[3,4-b]pyrazin-6-yl)amino)ethyl)phenyl)nicotinamide]: the IC50 in experiment [1] and in experiment [2] was under 300 nM throughout.
Turning to `CCc1ccc(C(=O)Nc2cccc([C@H](C)Nc3cnc4cnn(C)c4n3)c2)cn1` [Compound 207, (S)-6-ethyl-N-(3-(1-((1-methyl-1H-pyrazolo[3,4-b]pyrazin-6-yl)amino)ethyl)phenyl) nicotinamide], the IC50 in experiment [1] and in experiment [2] was under 300 nM throughout.
`Cc1cc(C(=O)Nc2cccc([C@H](C)Nc3cnc4cnn(C)c4n3)c2)ccc1CN1CCN(C)CC1` [Compound 208, (S)-3-methyl-N-(3-(1-((1-methyl-1H-pyrazolo[3,4-b]pyrazin-6-yl)amino)ethyl)phenyl)-4-((4-methylpiperazin-1-yl)methyl)benzamide]: the IC50 in experiment [1] and in experiment [2] was under 300 nM throughout.
As to `Cc1cc(C(=O)Nc2cccc([C@H](C)Nc3cnc4cnn(C)c4n3)c2)ccc1CN1CCOCC1` [Compound 209, (S)-3-methyl-N-(3-(1-((1-methyl-1H-pyrazolo[3,4-b]pyrazin-6-yl)amino)ethyl)phenyl)-4-(morpholinomethyl) benzamide], the IC50 in experiment [1] and in experiment [2] was under 300 nM in each case.
With `COc1ccc(C(=O)Nc2cccc([C@H](C)Nc3cnc4cnn(C)c4n3)c2)cc1C` [Compound 210, (S)-4-methoxy-3-methyl-N-(3-(1-((1-methyl-1H-pyrazolo[3,4-b]pyrazin-6-yl)amino)ethyl)phenyl)benzamide], the IC50 in experiment [1] and in experiment [2] was under 300 nM in each case.
As for `COC(=O)c1ccc(C(=O)Nc2cccc([C@H](C)Nc3cnc4cnn(C)c4n3)c2)cc1` [Compound 211, methyl (S)-4-((3-(1-((1-methyl-1H-pyrazolo[3,4-b]pyrazin-6-yl)amino)ethyl)phenyl)carbamoyl) benzoate], the IC50 in experiment [1] and in experiment [2] was under 300 nM in each case.
On to `COC(=O)c1ccc(C(=O)Nc2cccc([C@H](C)Nc3cnc4cnn(C)c4n3)c2)cn1` [Compound 212, methyl (S)-5-((3-(1-((1-methyl-1H-pyrazolo[3,4-b]pyrazin-6-yl)amino)ethyl)phenyl)carbamoyl) picolinate], for which the IC50 in experiment [1] is 300 to 1000 nM; in experiment [2], at least 1000 nM.
As to `C[C@H](Nc1cnc2cnn(C)c2n1)c1cc(NC(=O)c2cnn(C3CCC3)c2)ccc1F` [Compound 213, (S)-1-cyclobutyl-N-(4-fluoro-3-(1-((1-methyl-1H-pyrazolo[3,4-b]pyrazin-6-yl)amino)ethyl)phenyl)-1H-pyrazole-4-carboxamide], the IC50 in experiment [1] and in experiment [2] was under 300 nM in each case.
For the molecule `CC(=O)Oc1ccc(C(=O)Nc2cccc([C@H](C)Nc3cnc4cnn(C)c4n3)c2)cc1` [Compound 214, (S)-4-((3-(1-((1-methyl-1H-pyrazolo[3,4-b]pyrazin-6-yl)amino)ethyl)phenyl)carbamoyl) phenyl acetate], the IC50 in experiment [1] and in experiment [2] was under 300 nM in each case.
In the case of `CC(=O)Oc1cccc(C(=O)Nc2cccc([C@H](C)Nc3cnc4cnn(C)c4n3)c2)c1` [Compound 215, (S)-3-((3-(1-((1-methyl-1H-pyrazolo[3,4-b]pyrazin-6-yl)amino)ethyl)phenyl)carbamoyl) phenyl acetate], the IC50 in experiment [1] and in experiment [2] was under 300 nM each time.
Consider `C=C(C)c1ncc(C(=O)Nc2cccc([C@H](C)Nc3cnc4cnn(C)c4n3)c2)cc1C` [Compound 216, (S)-5-methyl-N-(3-(1-((1-methyl-1H-pyrazolo[3,4-b]pyrazin-6-yl)amino)ethyl)phenyl)-6-(prop-1-en-2-yl) nicotinamide], for which the 50% inhibitory concentration (IC50) in experiment [1] and in experiment [2] was under 300 nM in each case.
In the case of `CSc1ccc(C(=O)Nc2cccc([C@H](C)Nc3cnc4cnn(C)c4n3)c2)cn1` [Compound 218, (S)-N-(3-(1-((1-methyl-1H-pyrazolo[3,4-b]pyrazin-6-yl)amino)ethyl)phenyl)-6-(methylthio)nicotinamide], the IC50 in experiment [1] and in experiment [2] was under 300 nM each time.
`CSc1ccc(C(=O)Nc2cccc([C@H](C)Nc3cnc4cnn(C)c4n3)c2)cc1` [Compound 219, (S)-N-(3-(1-((1-methyl-1H-pyrazolo[3,4-b]pyrazin-6-yl)amino)ethyl)phenyl)-4-(methylthio)benzamide]: the IC50 in experiment [1] and in experiment [2] was under 300 nM each time.
In the case of `C[C@H](Nc1cnc2cnn(C)c2n1)c1cccc(NC(=O)c2ccc(S(C)(=O)=O)cc2)c1` [Compound 220, (S)-N-(3-(1-((1-methyl-1H-pyrazolo[3,4-b]pyrazin-6-yl)amino)ethyl)phenyl)-4-(methylsulfonyl)benzamide], the IC50 is under 300 nM in experiment [1] and 300 to 1000 nM in experiment [2].
As to `C[C@H](Nc1cnc2cnn(C)c2n1)c1cccc(NC(=O)c2ccc(S(C)(=O)=O)nc2)c1` [Compound 221, (S)-N-(3-(1-((1-methyl-1H-pyrazolo[3,4-b]pyrazin-6-yl)amino)ethyl)phenyl)-6-(methylsulfonyl)nicotinamide], the IC50 in experiment [1] and in experiment [2] was under 300 nM each time.

For orientation: IC50 means the concentration that gives 50% inhibition.

(Values after patent US20230102554A1 (GB002, INC., priority 2019, published 2023).)
